ChEMBL document CHEMBL1201862, “PubChem BioAssay data set” (2004)
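Tested at 5 concentrations; 48 h exposure; 96-well plates; endpoints linearly interpolated, else capped at highest concentration. Here, GI50 denotes the concentration required for 50% inhibition of growth.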 Active and inactive are the calls of the source. Cut-off read from the data, not from the text of the source: active = GI50 up to about 1.1 µM and inactive = higher.

Assays:
Experiment in all cases: NCI-60 cell line screen, 48 h
BT-549 = tested on: BT-549
COLO 205 = tested on: COLO 205
NCI-H23 = tested on: NCI-H23
CAKI-1 = tested on: CAKI-1
NCI-H522 = tested on: NCI-H522
NCI-H460 = tested on: NCI-H460
KM12 = tested on: KM12
A498 = tested on: A498
NCI/ADR-RES = tested on: NCI/ADR-RES
HT-29 = tested on: HT-29
UO-31 = tested on: UO-31
DMS-114 = tested on: DMS-114
DMS-273 = tested on: DMS-273
MCF7 = tested on: MCF7
HOP-18 = tested on: HOP-18
XF498 = tested on: XF498
M19-MEL = tested on: M19-MEL
SNB-78 = tested on: SNB-78
ACHN = tested on: ACHN
LXFL 529 = tested on: LXFL 529

Measured: GI50

CC(=O)Oc1ccccc1[C@H]1CC(=O)C[C@H](c2ccccc2OC(C)=O)C12C(=O)c1ccccc1C2=O
inactive: BT-549 24.9 µM | COLO 205 22.3 µM | NCI-H23 26.4 µM | CAKI-1 20.9 µM | NCI-H522 26.7 µM | NCI-H460 19.1 µM | KM12 59.6 µM | A498 25.6 µM | NCI/ADR-RES 29.2 µM | HT-29 29.2 µM | UO-31 36.3 µM

Cc1[nH]c(=O)[nH]c(=O)c1/C=C/C(=O)NC(CO)CC(C)C (stereo not given)
inactive: DMS-114 260 µM | DMS-273 > 375 µM | COLO 205 242 µM | NCI-H23 > 362 µM | MCF7 228 µM | HOP-18 254 µM | CAKI-1 146 µM | NCI-H522 114 µM | NCI-H460 163 µM | XF498 60 µM | KM12 > 375 µM | M19-MEL 322 µM | SNB-78 373 µM | A498 > 375 µM | NCI/ADR-RES > 375 µM | HT-29 222 µM | UO-31 > 375 µM

COc1ccc(CCn2nccc2C)cc1
inactive: BT-549 > 100 µM | COLO 205 > 100 µM | NCI-H23 > 100 µM | MCF7 > 100 µM | CAKI-1 > 100 µM | NCI-H460 > 100 µM | KM12 > 100 µM | NCI/ADR-RES > 100 µM | HT-29 > 100 µM | UO-31 59.6 µM | ACHN > 100 µM

COc1ccccc1NC(=O)C(=O)C(C(=O)c1ccccc1F)C1OC(=O)c2ccccc21 (stereo not given)
inactive: DMS-114 23.1 µM | DMS-273 23.9 µM | COLO 205 19.2 µM | NCI-H23 20 µM | CAKI-1 34.5 µM | NCI-H522 16.9 µM | NCI-H460 25.8 µM | XF498 14.1 µM | LXFL 529 24.9 µM | KM12 30.1 µM | M19-MEL 15.8 µM | SNB-78 25.5 µM | A498 59.8 µM | HT-29 23.9 µM | UO-31 32.4 µM | ACHN 39.4 µM

CC1(Cl)CC2C(CC1Sc1nnnn1-c1ccccc1)C2(C)C (stereo not given)
inactive: DMS-114 45.9 µM | DMS-273 71.9 µM | COLO 205 83.8 µM | NCI-H23 64.3 µM | NCI-H460 89.9 µM | LXFL 529 60.3 µM | KM12 55.6 µM | M19-MEL > 100 µM | SNB-78 92.7 µM | HT-29 > 100 µM | UO-31 37.5 µM | ACHN 75.5 µM

CSCC[C@@H](NC(=O)[C@H](CC(C)C)NC(=O)C(Cc1cnc[nH]1)NC(=O)CNC(=O)[C@@H](NC(=O)[C@H](C)NC(=O)[C@H](Cc1cn(C=O)c2ccccc12)NC(=O)[C@H](CCC(N)=O)NC(=O)[C@@H](N)CC(N)=O)C(C)C)C(N)=O (stereo not given in full)
inactive: DMS-114 > 100 µM | DMS-273 > 100 µM | COLO 205 > 100 µM | NCI-H23 > 100 µM | MCF7 > 100 µM | HOP-18 > 100 µM | NCI-H522 > 100 µM | NCI-H460 > 100 µM | XF498 > 100 µM | KM12 > 100 µM | M19-MEL > 100 µM | SNB-78 > 100 µM | A498 > 100 µM | NCI/ADR-RES > 100 µM | HT-29 > 100 µM | UO-31 > 100 µM

NCCCCCC(CCN)SCC1OC(n2cnc3c(N)ncnc32)C(O)C1O (stereo not given)
inactive: DMS-114 339 µM | DMS-273 369 µM | COLO 205 > 798 µM | NCI-H23 764 µM | MCF7 > 1500 µM | HOP-18 6.76 µM | CAKI-1 411 µM | NCI-H522 822 µM | NCI-H460 379 µM | XF498 > 15 µM | KM12 416 µM | M19-MEL > 843 µM | SNB-78 > 1020 µM | A498 > 1500 µM | NCI/ADR-RES > 948 µM | HT-29 569 µM | UO-31 394 µM

COc1c(O)c(C=O)c2c(O)c(-c3c(C)cc4c(C(C)C)c(OC)c(O)c(C=O)c4c3O)c(C)cc2c1C(C)C [6,6'-METHOXYGOSSYPOL]
inactive: DMS-114 3.08 µM | DMS-273 5.11 µM | COLO 205 1.89 µM | NCI-H23 3.61 µM | CAKI-1 6.08 µM | NCI-H522 2.62 µM | NCI-H460 4.72 µM | LXFL 529 3.96 µM | KM12 5.05 µM | M19-MEL 3.65 µM | SNB-78 25.3 µM | A498 11.4 µM | HT-29 4.13 µM | UO-31 3.3 µM | ACHN 2.43 µM
